We go through 2 molecules from EP0813412B1, “GEL FOR THE LOCAL HORMONOTHERAPY OF VAGINAL DRYNESS” (priority 1995, dated 1997).

Data set [1] in a line: Clinical trial, repeated vaginal application for 13 days: clinical and biological tolerance. In kind it is in vivo, femme. The settings on record: 10 µg vaginal, repeated for 13 days. An excerpt:
Ces événements d'intensité mineure n'ont pas empêché la poursuite de l'étude. La tolérance biologique a été excellente. Aucune anomalie ayant une signification clinique n'a été rapportée.

The format of data set [2] is in vivo, femme. The procedure:
Une première solution consiste à réduire la teneur en principe actif, typiquement à des doses de 5 µg ou même 2,5 µg par application unitaire.

Data set [3] deals with récepteurs à haute affinité pour l'estradiol au niveau de l'épithélium vaginal. The following applies: estrogen receptors; cited from earlier work.
Setting [4] is: 10 µg, free micronised form in gel, single dose.

In the case of `C[C@]12CC[C@@H]3c4ccc(O)cc4CC[C@H]3[C@@H]1CC[C@@H]2O` [17β-estradiol], the tolérance biologique entry in data set [1] is “excellente”. Further, the tolérance clinique entry in data set [1] (sixteen subjects, free micronised form in gel) is “excellente pour treize sujets sur seize”. Also, the “effets indésirables (céphalées, épisodes de vomissements et bouffées de chaleur)” value in data set [1] (sixteen subjects, minor intensity) is on record as “Trois sujets ont signalé des effets indésirables”. Further, the “surface sous la courbe” value in data set [2] (10 µg vaginal gel, steady state) is given as “comparable à celle obtenue après la première application”. For the same molecule, the “pic plasmatique d'estradiol” value in data set [2] (10 µg vaginal gel, steady state compared with first application) is on record as “tend à être plus faible et retardé”. Further, in data set [2] (setting [4]), the “concentration plasmatique maximale du pic” value is “du même ordre que le taux physiologique moyen observés la première semaine de la phase folliculaire chez la femme fertile” and the “time of the plasma peak (pic plasmatique)” value is on record as “une heure environ”.

For `C[C@]12CC[C@@H]3c4ccc(O)cc4CC[C@H]3[C@@H]1C[C@@H](O)[C@@H]2O` [estriol], in data set [3], the “activity profile (agonist / antagonist)” value is reported as “agoniste partiel, voire d'antagoniste”.
